Source: patent publication US20240374520A1, “PROTEOLIPID VESICLES FORMULATED WITH FUSION ASSOCIATED SMALL TRANSMEMBRANE PROTEINS” (priority 2020, published 2024)

System: WI-38 cells
Assay type: cell-based, human
Conditions: Alamar Blue, 72 hours after addition to WI-38 cells
Method: Conventional LNPs rely on endosomal escape for intracellular delivery, which results in limited nucleic acid release into the cytosol and is one of the major limitations of LNPs formulated for gene therapy (13, 20, 41). […] These lipids were utilized in a PLV formulation to promote nucleic acid encapsulation through charge neutralization. The optimal molar ratio of DODAP to pDNA was assessed by measuring the delivery and subsequent expression of DNA-encoded firefly luciferase (pDNA-FLuc) in retinal pigmented epithelial (ARPE-19) cells.
Cell cultures in a 96 well plates were treated with test compounds at indicated concentrations. After 24-96 hours, a 1/10 volume of Alamar blue solution (440 μM Resazurin; Sigma R7017 5GM) was added to the cells in culture medium and incubated for 2-4 hours at 37° C. 5% CO2. The Omega Fluostar (BMG LabTech) plate reader was used to measure the fluorescence (excitation wavelength of 540 nm and emission at 590 nm) of the treated cells. Cell viability was calculated using the following formula: […]

Q: `CCCCCCCC/C=C\CCCCCCCC(=O)OCC(CN(C)C)OC(=O)CCCCCCC/C=C\CCCCCCCC` (centres unmarked) [DODAP, 1,2-dioleoyl-3-dimethylammonium-propane] was tested. Which “tolerability / toxicity of cationic and ionizable lipids” value did it give?
A: The value was “most favorable tolerability”.

Q: `CCCCCCCC/C=C\CCCCCCCC(=O)OCC(C[N+](C)(C)C)OC(=O)CCCCCCC/C=C\CCCCCCCC` (centres unmarked) [DOTAP, 1,2-dioleoyl-3-trimethylammonium-propane] was tested. Which “tolerability / toxicity of cationic and ionizable lipids” value did it give?
A: Its value is “slightly higher toxicity”.
